Results reported in US7653428B2, “Methods for diagnosing a neurodegenerative condition” (The Brigham and Women's Hospital, Inc., priority 2000, dated 2010).

What was measured:
[1] = tested on: hTSLP (human total soluble lens protein); assay: Precipitation study of hTSLP incubated with hAβ1-42; format: biochemical; conditions: added during incubation of hTSLP with hAβ1-42
Description: Solutions of hTSLP (1 mg/ml) were incubated with or without hAβ1-42 (10 μM; 45 μg/ml) for 0 or 7 days. The resulting mixtures were then centrifuged at 15,000×g for 15 min and separated into pellet and supernatant fractions. The amount of pelleted protein was calculated by subtracting the supernatant protein concentration on Day 7 from the initial concentration on Day 0.

[2] = tested on: hTSLP (human total soluble lens protein); assay: Thioflavin-T fluorescence (total β-sheet content of protein mixture); format: biochemical; conditions: added during incubation of hTSLP with hAβ1-42
Description: Fluorescence assays were conducted according to a standard protocols.
To determine whether the Aβ-induced aggregation of hTSLP was accompanied by conformational changes, the total β-sheet content of the protein mixture was measured by monitoring thioflavin-T fluorescence.

[3] = tested on: bTLP (bovine lens protein); assay: Spontaneous bovine lens protein (bTLP) aggregation, absorbance at 400 nm; format: biochemical; conditions: 37° C. in the dark
Description: Filtered phosphate buffered saline solution (pH 7.4) was treated with chelex and used to make stock solutions (10×) for all reagents (chemical or biological). Protein stock solution at a concentration of 10 mg/mL was prepared from the supernatant as described above. Stock solutions of chelators (ethylenediaminetetraacetic acid (EDTA), diethylenetriaminepentaacetic acid (DTPA), or triethylenetetramine (TETA)) were made up at a concentration of 2 mM freshly prepared in PBS. Stock solutions of Catalase and SOD were freshly prepared in PBS to have an activity of 5000 U/mL and 1000 U/mL respectively. Aβ was prepared as a suspension (100 uM) in PBS or HPLC water by sonicating for three minutes such that only monomers or dimers remained. Metals were prepared as a 10 μM solution; Cu is prepared as Cu:glycine (1:6) from copper sulfate.
(§1) Aggregation experiments were carried out in 96 well black micro titer plates, in the 2dark. Depending on the experiment, a combination of 20 μL of 10× lenticular protein (final concentration 1 mg/mL), 20 μL of 10× chelator solution (final concentration 200 μM), 20 μL of Catalase and/or SOD (final concentrations of 500 U/mL and 100 U/mL respectively), 20 μL of Aβ (final concentration of 10 μM), 20 μL of metal solution (final concentration 1 μM), and an amount of PBS buffer to bring the total volume in the well to 200 μL. hTLP aggregation or bTLP aggregation was monitored by observing an increase in absorbance at 400 nm using a Spectramax UV-V is spectrophotometer.
The influence of Reactive Oxygen Species ((ROS), Cu/Zn Superoxide Dismutase (SOD), Catalase (Cat)) on spontaneous bTLP aggregation was analyzed.

[4] = tested on: hTSLP (human total soluble lens protein); assay: Turbidity assay of human total soluble lens protein aggregation (absorbance at 400 nm); format: biochemical; conditions: for effect on Aβ-potentiated hTSLP aggregation: added during incubation of hTSLP with hAβ1-42; for promotion of hTSLP/hTLP aggregation: hTSLP 1 mg/ml, 37° C. in the dark, peptide added
Description: Human lenses with intact capsules were dissected from whole globes and homogenized in 1 mL HPLC water. The homogenate was centrifuged for at 100,000×g for 1 hour at 4° C. and the supernatant utilized as hTLSP. Protein concentration was determined using a commercially available kit (Pierce). The final hTSLP concentration was 1 mg/mL.
Test solutions of hTSLP (1 mg/ml) were plated to a final volume of 200 μL per well in 96 well microtiter plates with black sidewalls. Peptides and/or inhibitors were added to these solutions as indicated. Plates were incubated in the dark at 37° C. under humidified, CO2-balanced conditions. Turbidity (optical density) was assessed on a SpectraMax-Plus spectrophotometric plate reader set at a wavelength of 400 nm.
as §1

[5] = cited from earlier work

| Molecule | effect on protein precipitation [1] | effect on increased β-sheet content [2] | effect on bTLP aggregation [3] | effect on Aβ-potentiated hTSLP aggregation [4] | promotion of hTSLP/hTLP aggregation [4] | absolute log Ks for Cu ([5]; Cu) | absolute log Ks for Fe ([5]; Fe) | absolute log Ks for Zn ([5]; Zn) | promotion of hTSLP/hTLP aggregation ([4]; listed as insulin) |
| --- | --- | --- | --- | --- | --- | --- | --- | --- | --- |
| superoxide dismutase: antioxidant scavenging enzyme | blocked | blocked | reduces the extent of bTLP aggregation | abolished aggregation |  |  |  |  |  |
| synthetic rat Aβ1-40: synthetic rat β-amyloid peptide 1-40, relatively redox inert control peptide (DAEFGHDSGFEVRHQKLVFFAEDVGSNKGAIIGLMVGGVV; Amyloid-beta protein 40; UniProt P08592 672-711, looked up) |  |  |  |  | none |  |  |  |  |
| O=C(O)CN(CCN(CC(=O)O)CC(=O)O)CCN(CC(=O)O)CC(=O)O [DTPA, diethylenetriaminepentaacetic acid] | blocked | blocked | reduces the extent of bTLP aggregation | abolished aggregation |  | 22.0 | 28.1 | 19.3 |  |
| recombinant human insulin: recombinant human insulin, negative control of approximately the same molecular weight as Aβ |  |  |  |  | none |  |  |  | no effect on hTLP aggregation |
| O=C(O)CN(CCN(CC(=O)O)CC(=O)O)CC(=O)O [EDTA, ethylenediaminetetraacetic acid] |  |  | reduces the extent of bTLP aggregation |  |  |  |  |  |  |
| catalase: antioxidant scavenging enzyme (protein, UniProt P04040 2-527, looked up) Catalase: ADSRDPASDQMQHWKEQRAAQKADVLTTGAGNPVGDKLNVITVGPRGPLLVQDVVFTDEMAHFDRERIPERVVHAKGAGAFGYFEVTHDITKYSKAKVFEHIGKKTPIAVRFSTVAGESGSADTVRDPRGFAVKFYTEDGNWDLVGNNTPIFFIRDPILFPSFIHSQKRNPQTHLKDPDMVWDFWSLRPESLHQVSFLFSDRGIPDGHRHMNGYGSHTFKLVNANGEAVYCKFHYKTDQGIKNLSVEDAARLSQEDPDYGIRDLFNAIATGKYPSWTFYIQVMTFNQAETFPFNPFDLTKVWPHKDYPLIPVGKLVLNRNPVNYFAEVEQIAFDPSNMPPGIEASPDKMLQGRLFAYPDTHRHRLGPNYLHIPVNCPYRARVANYQRDGPMCMQDNQGGAPNYYPNSFGAPEQQPSALEHSIQYSGEVRRFNTANDDNVTQVRAFYVNVLNEEQRKRLCENIAGHLKDAQIFIQKKAVKNFTEVHPDYGSHIQALLDKYNAEKPKNAIHTFVQSGSHLAAREKANL | blocked | blocked | reduces the extent of bTLP aggregation | abolished aggregation |  |  |  |  |  |
